# Source: article PMC8769072, “Proteome‐scale mapping of binding sites in the unstructured regions of the human proteome” (Molecular Systems Biology, 2022)
# Test system: immobilized GST-tagged bait protein domains
# Test: ProP-PD phage selections (HD2 P8, sublibraries, HD2 P3, HD1 P8) with NGS and confidence level
# Assay type: binding, human
# Conditions: for HD2_nucleus confidence: library HD2 P8 nucleus
# [1] = library HD2, bait YAP1_WW_1_P46937_169_207, validated benchmark motif instance, in_library_check TRUE, TRUE/FALSE = instance recovered in ProP-PD selection
# [2] = library HD2, bait EPS15_EH__P42566_121_215, whether the validated benchmark motif instance was recovered in the ProP-PD selection (TRUE/FALSE)
# [3] = library HD2, bait Keap1_KELCH__Q14145_321_609, whether the validated benchmark motif instance was recovered in the ProP-PD selection (TRUE/FALSE)
# [4] = HD2 library, bait SUMO1_SUMO__P63165_1_101, known motif instance of the benchmarking set found (TRUE) or not found (FALSE) among selected peptides
# [5] = bait MAP1LC3B_ATG8 (Q9GZQ8 2-119), HD2 library, benchmark motif instance recovered in the ProP-PD selection (TRUE/FALSE)
# [6] = HD2 library, bait TLN1_PTB__Q9Y490_309_401, known motif instance of the benchmarking set found (TRUE) or not found (FALSE) among selected peptides
# [7] = bait MAP1LC3A_ATG8 (Q9H492 2-121), HD2 library, benchmark motif instance recovered in the ProP-PD selection (TRUE/FALSE)
# [8] = bait PABP-B_PABP__P11940_544_623, HD2 library, confidence level (1-4) of best matching selected peptide
# [9] = bait PABP-B_PABP__P11940_544_623, HD2 library, specificity score of best matching selected peptide
# [10] = bait PABP-B_PABP__P11940_544_623, HD2 library, whether the validated benchmark motif instance was recovered in the ProP-PD selection (TRUE/FALSE)
# [11] = library HD2, bait WDR5_WD_1234567_P61964_21_334, validated benchmark motif instance, in_library_check TRUE, TRUE/FALSE = instance recovered in ProP-PD selection
# [12] = bait CALM1_EF-hand__P0DP23_2_149, library HD2, benchmarking set of validated motif instances, TRUE = motif instance recovered in the ProP-PD selection
# [13] = HD2 library, bait CALM1_EF-hand__P0DP23_2_149, benchmark motif instance, in_library_check FALSE, in_library_coverage 0
substance,measurement,setting,value
GHSPPPAYTPMSGNQF,best_confidence,"library HD2, bait YAP1_WW_1_P46937_169_207, confidence level of best matching selected peptide (4 High, 2-3 Medium, 1 Low)",3
same,best_specificity,"library HD2, bait YAP1_WW_1_P46937_169_207, specificity score of best matching selected peptide",1
same,motif_found,[1],TRUE
GHSSRTSPLDNVGREL,HD2_nucleus confidence,bait WDR5_WD_1234567_P61964_21_334,4
GLAFGAFTNPFTAPAAQSP,motif_found,[2],FALSE
GMEHRGPPPEYPFKGMPP,motif_found,"bait NEDD4_WW_4_P46934_890_928, HD2 library, whether the validated benchmark motif instance was recovered in the ProP-PD selection (TRUE/FALSE)",FALSE
same,motif_found,[1],FALSE
GNVIRWHNQETGEQIAIKQC,motif_found,[3],FALSE
GPLRPVLEYIDLVSSDDEEPSTSYTD,motif_found,[4],FALSE
GPPSLNYIPPVLQLSG,best_specificity,"bait CEP55_EABR__Q53EZ4_160_217, library HD2, best matching peptide",1
same,best_confidence,"bait CEP55_EABR__Q53EZ4_160_217, library HD2, confidence level of best matching peptide (4 = High, 2 or 3 = Medium, 1 = Low)",2
GPTPTEPPPPYSFRPE,HD2_cytoplasm confidence,"bait NEDD4_WW_4_P46934_890_928, HD2 P8 cytoplasm sublibrary, confidence level (4 = High, 2-3 = Medium, 1 = Low)",4
GQSLKVMPCLAPIAAKVGS,motif_found,"library HD2, bait ZMYND11_coiled-coil-MYND__Q15326_480_602, validated benchmark motif instance, in_library_check TRUE, TRUE/FALSE = instance recovered in ProP-PD selection",FALSE
GRAQAEQWAAEFIQQQGTS,motif_found,"bait PEX14_Pex14__O75381_16_84, HD2 library, whether the validated benchmark motif instance was recovered in the ProP-PD selection (TRUE/FALSE)",FALSE
GRDSPPSWRPQPDGEASQTEDV,motif_found,"HD2 library, bait TNKS_TANK-peptide-bind__O95271_174_649, known motif instance of the benchmarking set found (TRUE) or not found (FALSE) among selected peptides",FALSE
GSSGNTHDDFVMIDFKPAFS,motif_found,[5],FALSE
GTNPTLVSVPNPVFGSDTFCEP,motif_found,[6],FALSE
"GYRQSPDGACSV,YRQSPDGACS,LRNSATGYRQSPDGACSVPSAR,YRQSPDGACSV [LNPEP 95-102]",motif_found,"HD2 library, bait TNKS_TANK-peptide-bind__O95271_174_649, benchmark motif instance, in_library_check FALSE, in_library_coverage 0",FALSE
HDDFVMIDFKPAFSKD,motif_found,[7],TRUE
same,best_confidence,"bait MAP1LC3A_ATG8 (Q9H492 2-121), HD2 library, confidence level (1-4) of best matching peptide",3
same,best_specificity,"bait MAP1LC3A_ATG8 (Q9H492 2-121), HD2 library, specificity score of best matching peptide",1
HLNNDSSTTIIIDSSDETTESPTVGTAQ,motif_found,[4],FALSE
HPAPSWVAFAHTGAWG,HD2 confidence,"bait AP2B1_adaptin__P63010_700_937, HD2 P8 selection, non primary paralogue peptide match, confidence level -4 to 4: 4 = High, 3 or 2 = Medium, 1 = Low, 0 = Filtered/Noise",3
"HTPRLPTLPKRVP,RRAFWHTPRLPTLPKRVPRAGEAR [CCDC8]",motif_found,"bait ANKRA2_Ank__Q9H9E1_142_313, library HD2, benchmarking set of validated motif instances, TRUE = motif instance recovered in the ProP-PD selection",FALSE
IIYDRKFLMECRNSPV,best_specificity,"library HD2, bait EIF4E_eIF4E__P06730_1_217, best matching peptide",1
same,best_confidence,"library HD2, bait EIF4E_eIF4E__P06730_1_217, confidence level of best matching peptide (4 High, 2-3 Medium, 1 Low)",2
same,motif_found,"library HD2, bait EIF4E_eIF4E__P06730_1_217, whether the validated benchmark motif instance was recovered in the ProP-PD selection (TRUE/FALSE)",TRUE
ILSKSNLNPDAKEFIP,best_confidence,[8],2
same,best_specificity,[9],1
same,motif_found,[10],TRUE
IPDTPSPTVSVITISSDTDE,motif_found,[4],FALSE
IPSAPLYEEITYSGIS,best_specificity,"HD2 library, bait TSG101_UEV__Q99816_1_145, best matching selected peptide",1
same,best_confidence,"HD2 library, bait TSG101_UEV__Q99816_1_145, confidence level of best matching selected peptide",3
same,motif_found,"HD2 library, bait TSG101_UEV__Q99816_1_145, known motif instance of the benchmarking set found (TRUE) or not found (FALSE) among selected peptides",TRUE
IQPDSPAPNPFSEEDEHPQ,motif_found,[2],FALSE
IREHVTGCARSEGFYTIDKKD,motif_found,[11],FALSE
IYKSAVTTVVNPKYEGK----- [ITGB1 789-796],motif_found,"HD2 library, bait TLN1_PTB__Q9Y490_309_401, benchmark motif instance, in_library_check FALSE, in_library_coverage 0",FALSE
KATVEKPSNPFSGDLQKTF,motif_found,[2],FALSE
"KDKEEVQRKRQKLMPNFSDS,IKDKEEVQRKRQKLMPNFSD [NFKB1 361-365]",motif_found,"HD2 library, bait KPNA4_Arm__O00629_68_487, benchmark motif instance, in_library_check FALSE, in_library_coverage 0",FALSE
KDLATVNSNPFDDPDAAEL,motif_found,[2],FALSE
KEPGGSRAHSSHLKSKKGQ,motif_found,"library HD2, bait USP7_MATH-TRAF__Q93009_53_206, validated benchmark motif instance, in_library_check TRUE, TRUE/FALSE = instance recovered in ProP-PD selection",FALSE
KILRLSGKP,motif_found,"bait MAD2L1_HORMA (Q13257 1-205), HD2 library, benchmark motif instance recovered in the ProP-PD selection (TRUE/FALSE)",FALSE
KISPPTPKPRPPRPLPVAPGS,motif_found,"library HD2, bait YES1_SH3__P07947_90_152, validated benchmark motif instance, in_library_check TRUE, TRUE/FALSE = instance recovered in ProP-PD selection",FALSE
KKAFVHMPTLPNLDFHKTGDGL,motif_found,"library HD2, bait ANKRA2_Ank__Q9H9E1_142_313, motif instance NOT in library (in_library_check FALSE, in_library_coverage 0)",FALSE
KKKATFRAITSTLASSFKRR [GRIN1],motif_found,[12],FALSE
KKRFSFKKSFKLSGFSFK [MARCKS],motif_found,[12],FALSE
KLSKLDVLLLATTYIA,HD2_nucleus confidence,bait SIN3A_PAH__Q96ST3_295_383,4
KMNAKWDTGENPIYKSAVTTVV,motif_found,[6],FALSE
KNSSCDTDDFVLVPHNISSD,motif_found,[7],FALSE
same,motif_found,[5],FALSE
KRRWKKNFIAVSAANRFKKISSSGAL [MYLK2],motif_found,[12],FALSE
KSTLNPNAKEFNPRSF,best_confidence,[8],2
same,best_specificity,[9],1
same,motif_found,[10],TRUE
KTAEKSDFEAVEALMSMSCSWKSD [KLF10 39-48],motif_found,"HD2 library, bait SIN3A_PAH__Q96ST3_295_383, benchmark motif instance, in_library_check FALSE, in_library_coverage 0",FALSE
LAVNPTGCARSEPKMSAHVKR,motif_found,[11],FALSE
LAYLRSHKDEVVKIQSLARMHQARKRYRDRLQYF [IQGAP1 806-825],motif_found,[13],FALSE
LDEAFSRLAQSRTNPQ,best_specificity,"bait AP2B1_adaptin__P63010_700_937, library HD2, best matching peptide",1
same,best_confidence,"bait AP2B1_adaptin__P63010_700_937, library HD2, confidence level of best matching peptide (4 = High, 2 or 3 = Medium, 1 = Low)",2
LDPDKPTNFTNPVYATLYMGGH,motif_found,[6],FALSE
LELDRLMASLSDFRVQ,best_confidence,"bait PTK2_Focal-AT__Q05397_891_1050, HD2 library, confidence level (1-4) of best matching selected peptide",2
same,best_specificity,"bait PTK2_Focal-AT__Q05397_891_1050, HD2 library, specificity score of best matching selected peptide",1
same,motif_found,"bait PTK2_Focal-AT__Q05397_891_1050, HD2 library, whether the validated benchmark motif instance was recovered in the ProP-PD selection (TRUE/FALSE)",TRUE
LETKVFPRPVLPSLTV,p3_HD2 confidence,"bait ANKRA2_Ank__Q9H9E1_142_313, library HD2 P3",2
same,p3_HD2 count proportions,"bait ANKRA2_Ank__Q9H9E1_142_313, library HD2 P3, mean normalised NGS counts",0.06348
same,p3_HD2 mean counts,"bait ANKRA2_Ank__Q9H9E1_142_313, library HD2 P3, mean raw NGS counts, all selections",1066
same,HD2 confidence,"bait ANKRA2_Ank__Q9H9E1_142_313, library HD2 P8",4
same,HD2_nc confidence,"bait ANKRA2_Ank__Q9H9E1_142_313, library HD2 P8 nucleocytoplasmic",3
same,HD2_nc count proportions,"bait ANKRA2_Ank__Q9H9E1_142_313, library HD2 P8 nucleocytoplasmic, mean normalised NGS counts",0.1009
same,HD2_nc mean counts,"bait ANKRA2_Ank__Q9H9E1_142_313, library HD2 P8 nucleocytoplasmic, mean raw NGS counts, all selections",4420.0
LFCQNLPPPLPPKKYA,p3_HD2 confidence,"bait CRK_SH3_1_P46108_124_198, HD2 P3 library, confidence level (4 = High, 2-3 = Medium, 1 = Low)",3
same,p3_HD2 mean counts,"bait CRK_SH3_1_P46108_124_198, HD2 P3 library, mean NGS counts over replicate selections",10444.0
same,p3_HD2 count proportions,"bait CRK_SH3_1_P46108_124_198, HD2 P3 library, mean proportion of NGS counts",0.2023
LFKSATTTVMNPKFAES-----,motif_found,[6],FALSE
LHIKTHLDEETGEKTSITLD,motif_found,[3],FALSE
LINVRKRNVESGEEELASKL,motif_found,[3],FALSE
LKKLPSAVIALQRSFRSKRSKMLLEINRQK [IQCB1 321-336],motif_found,[13],FALSE
LKNINSINFDNPVYQKTTEDEV,motif_found,[6],FALSE
LKVLVKAVLFACMLMRK,motif_found,"library HD2, bait CALM1_EF-hand__P0DP23_2_149, motif instance NOT in library (in_library_check FALSE, in_library_coverage 0)",FALSE
LLSIHKVYEAVELLKSNHFYR [GEMIN5 992-998],motif_found,"HD2 library, bait EIF4E_eIF4E__P06730_1_217, benchmark motif instance, in_library_check FALSE, in_library_coverage 0",FALSE
LMINPTGCARSEPKILTHYKR,motif_found,[11],FALSE
